Reference: ChEMBL document CHEMBL3046932, “Synthesis, 5-HT1A and 5-HT2A receptor affinity and QSAR study of 1-benzhydryl-piperazine derivatives with xanthine moiety at N4” (Med Chem Res, 2012)

What was measured:
[1] = target: T1, 5-hydroxytryptamine receptor 1A (Rattus norvegicus, UniProt P19327); assay: Displacement of [3H]8-OH-DPAT from 5-HT1A receptor in Rattus norvegicus (rat) hippocampus
T1 sequence (P19327 whole entry): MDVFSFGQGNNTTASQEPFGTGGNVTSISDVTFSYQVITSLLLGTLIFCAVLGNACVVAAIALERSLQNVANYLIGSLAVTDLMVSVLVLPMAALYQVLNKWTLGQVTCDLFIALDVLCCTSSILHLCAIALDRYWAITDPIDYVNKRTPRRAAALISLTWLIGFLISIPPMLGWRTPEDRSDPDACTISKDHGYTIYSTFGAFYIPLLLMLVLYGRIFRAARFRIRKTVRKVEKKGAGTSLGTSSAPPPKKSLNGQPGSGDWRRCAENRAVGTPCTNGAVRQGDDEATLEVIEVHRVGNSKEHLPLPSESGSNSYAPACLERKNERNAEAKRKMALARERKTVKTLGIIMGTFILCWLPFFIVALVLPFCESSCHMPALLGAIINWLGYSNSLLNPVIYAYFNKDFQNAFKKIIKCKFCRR

[2] = target: 5-hydroxytryptamine receptor 2A (Rattus norvegicus, UniProt P14842); assay: Displacement of [3H]Ketanserin from 5-HT2A receptor in rat cortex
[3] = target: T2, 5-hydroxytryptamine receptor 2A (Homo sapiens, UniProt P28223); assay: Binding affinity to 5-HT2A (unknown origin)
[4] = target: T3, 5-hydroxytryptamine receptor 1A (Homo sapiens, UniProt P08908); assay: Binding affinity to 5-HT1A (unknown origin)
T3 sequence (P08908 whole entry): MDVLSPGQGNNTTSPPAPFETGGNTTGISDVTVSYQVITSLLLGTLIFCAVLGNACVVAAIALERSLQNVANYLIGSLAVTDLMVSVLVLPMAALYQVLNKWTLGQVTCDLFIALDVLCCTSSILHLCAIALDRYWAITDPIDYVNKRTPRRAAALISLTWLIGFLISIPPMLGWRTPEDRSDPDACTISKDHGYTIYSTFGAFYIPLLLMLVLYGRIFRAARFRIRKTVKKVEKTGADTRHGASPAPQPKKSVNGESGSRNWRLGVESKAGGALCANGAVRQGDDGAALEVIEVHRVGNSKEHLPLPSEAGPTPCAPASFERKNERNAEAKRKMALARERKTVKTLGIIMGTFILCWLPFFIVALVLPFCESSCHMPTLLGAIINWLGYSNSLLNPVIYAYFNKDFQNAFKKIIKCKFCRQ

[5] = target: T2, 5-hydroxytryptamine receptor 2A; assay: Displacement of [3H]Ketanserin from 5-HT2A receptor (unknown origin)
[6] = Selectivity index, ratio of Ki for rat 5-HT1A to Ki for 5-HT2A (unknown origin)

Chain of 5-hydroxytryptamine receptor 2A (Rattus norvegicus, UniProt P14842) (P14842 whole entry): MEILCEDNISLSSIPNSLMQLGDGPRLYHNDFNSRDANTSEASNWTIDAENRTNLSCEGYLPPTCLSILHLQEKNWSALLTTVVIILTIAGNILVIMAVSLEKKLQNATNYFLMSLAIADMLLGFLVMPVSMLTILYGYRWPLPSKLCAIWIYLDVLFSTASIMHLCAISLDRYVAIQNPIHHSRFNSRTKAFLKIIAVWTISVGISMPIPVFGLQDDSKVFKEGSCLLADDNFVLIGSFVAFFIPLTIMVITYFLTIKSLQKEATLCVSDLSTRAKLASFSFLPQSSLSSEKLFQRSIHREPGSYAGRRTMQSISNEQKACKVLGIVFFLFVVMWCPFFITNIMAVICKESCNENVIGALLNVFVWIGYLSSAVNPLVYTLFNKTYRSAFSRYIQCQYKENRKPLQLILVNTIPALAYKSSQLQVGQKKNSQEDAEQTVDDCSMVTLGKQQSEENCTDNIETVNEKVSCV
T2 sequence (P28223 whole entry): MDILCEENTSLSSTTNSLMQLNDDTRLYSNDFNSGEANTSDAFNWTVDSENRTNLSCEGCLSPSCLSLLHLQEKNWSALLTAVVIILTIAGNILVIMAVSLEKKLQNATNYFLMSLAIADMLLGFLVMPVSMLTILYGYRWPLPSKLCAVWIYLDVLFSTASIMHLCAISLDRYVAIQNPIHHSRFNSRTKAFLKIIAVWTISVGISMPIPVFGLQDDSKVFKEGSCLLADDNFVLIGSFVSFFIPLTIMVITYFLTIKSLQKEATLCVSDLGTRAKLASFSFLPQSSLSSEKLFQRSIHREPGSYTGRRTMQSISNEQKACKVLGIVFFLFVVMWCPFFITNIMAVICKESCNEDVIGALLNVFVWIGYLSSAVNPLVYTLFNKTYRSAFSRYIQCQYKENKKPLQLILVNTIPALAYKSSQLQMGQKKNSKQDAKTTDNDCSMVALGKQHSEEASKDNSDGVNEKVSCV

| Ki ([1]; read-out: pKi (converted)) [nM] | Ki [2] [nM] | Ki [3] [nM] | Ki [4] [nM] | Compound | further results |
| --- | --- | --- | --- | --- | --- |
| 210 | 119 |  |  | Cn1c(=O)c2c(nc(NCCCN3CCN(c4cccc(Cl)c4)CC3)n2CCc2ccccc2)n(C)c1=O |  |
|  |  | 126 | 25.7 | Cn1c(=O)c2c(nc3n2CCCN3CCCN2CCN(c3cccc(Cl)c3)CC2)n(C)c1=O |  |
|  |  | 4220 | 21.6 | COc1ccccc1N1CCN(CCCN2C(=O)CCn3c2nc2c3c(=O)n(C)c(=O)n2C)CC1 |  |
|  |  | 1080 | 32.8 | Cn1c(=O)c2c(nc3n(CCCN4CCN(c5cccc(Cl)c5)CC4)c(=O)ccn23)n(C)c1=O |  |
|  |  |  |  | Cn1c(=O)c2c(nc(N3CCN(C(c4ccccc4)c4ccccc4)CC3)n2C)n(C)c1=O | Ki ([1]; read-out: Ki): 10800 nM; Ki [5]: 22500 nM; Ratio Ki [6]: 0.5 |
|  |  | 3880 | 10.4 | COc1ccccc1N1CCN(CCCn2c(=O)ccn3c4c(=O)n(C)c(=O)n(C)c4nc23)CC1 |  |
|  |  | 330 | 26.7 | Cn1c(=O)c2c(nc3n2CCCCN3CCCN2CCN(c3cccc(Cl)c3)CC2)n(C)c1=O |  |
|  |  | 4680 | 25 | Cn1c(=O)c2c(nc3n(CCCN4CCN(c5ccccc5)CC4)c(=O)ccn23)n(C)c1=O |  |
|  |  |  |  | Cn1cnc2c1c(=O)n(CCCN1CCN(C(c3ccccc3)c3ccccc3)CC1)c(=O)n2C | Ki ([1]; read-out: Ki): 1990 nM; Ki [5]: 58.6 nM; Ratio Ki [6]: 33.9 |
|  |  | 197 | 385 | Cn1c(=O)c2c(nc(NCCCN3CCN(c4ccccc4)CC3)n2C)n(C)c1=O |  |
| 220 | 449 | 1010 | 592 | CCOC(=O)Cn1c(NCCCN2CCN(c3ccccc3)CC2)nc2c1c(=O)n(C)c(=O)n2C |  |
| 1010 | 115 |  |  | CC(c1ccccc1)n1c(NCCCN2CCN(c3ccccc3)CC2)nc2c1c(=O)n(C)c(=O)n2C (centres undefined) |  |
|  |  | 8150 | 36 | Cn1c(=O)c2c(nc3n2CCCN3CCCN2CCN(c3ncccn3)CC2)n(C)c1=O |  |
|  |  | 422 | 16 | Cn1c(=O)c2c(nc3n2CCCN3CCCN2CCN(c3ccccc3)CC2)n(C)c1=O |  |
|  |  | 28000 | 42 | Cn1c(=O)c2c(nc3n2CCC(=O)N3CCCN2CCN(c3ncccn3)CC2)n(C)c1=O |  |
|  |  | 258 | 31 | Cn1c(=O)c2c(nc3n2CCCCN3CCCN2CCN(c3ccccc3)CC2)n(C)c1=O |  |

| Ki ([1]; read-out: pKi (converted)) [nM] | Ki [2] [nM] | Ki [3] [nM] | Ki [4] [nM] | Compound | further results |
| --- | --- | --- | --- | --- | --- |
| 50 | 445 |  |  | Cn1c(=O)c2c(nc(NCCCN3CCN(c4ccccc4)CC3)n2CCCc2ccccc2)n(C)c1=O |  |
|  |  | 38800 | 474 | Cn1c(=O)c2c(nc3n2CCCC(=O)N3CCCN2CCN(c3ncccn3)CC2)n(C)c1=O |  |
|  |  | 5010 | 168 | COc1ccccc1N1CCN(CCCN2C(=O)CCCn3c2nc2c3c(=O)n(C)c(=O)n2C)CC1 |  |
|  |  | 243 | 2.1 | Cn1c(=O)c2c(nc3n2CCCN3CCCCN2CCN(c3ccccc3)CC2)n(C)c1=O |  |
|  |  |  |  | Cn1c(=O)c2c(nc(NCCCN3CCN(C(c4ccccc4)c4ccccc4)CC3)n2C)n(C)c1=O | Ki ([1]; read-out: Ki): 1570 nM; Ki [5]: 308 nM; Ratio Ki [6]: 5.1 |
| 21.5 | 1990 |  |  | Cn1c(=O)c2c(nc3n(CCCCN4CCN(c5ccccc5)CC4)c(=O)ccn23)n(C)c1=O |  |
| 0.5 | 1070 |  |  | COc1ccccc1N1CCN(CCCCn2c(=O)ccn3c4c(=O)n(C)c(=O)n(C)c4nc23)CC1 |  |
| 48 | 550 |  |  | COc1ccccc1N1CCN(CCCNc2nc3c(c(=O)n(C)c(=O)n3C)n2Cc2ccccc2)CC1 |  |
|  |  | 562 | 17.2 | COc1ccccc1N1CCN(CCCN2CCCCn3c2nc2c3c(=O)n(C)c(=O)n2C)CC1 |  |
|  |  | 182 | 42.9 | Cn1c(=O)c2c(nc3n2CCC(=O)N3CCCN2CCN(c3cccc(Cl)c3)CC2)n(C)c1=O |  |
|  |  | 359 | 60.3 | Cn1c(=O)c2c(nc3n2CCCC(=O)N3CCCN2CCN(c3cccc(Cl)c3)CC2)n(C)c1=O |  |
| 8.79 | 153 |  |  | Cn1c(=O)c2c(nc3n(CCCCN4CCN(c5cccc(Cl)c5)CC4)c(=O)ccn23)n(C)c1=O |  |
| 10 | 346 |  |  | Cn1c(=O)c2c(nc(NCCCN3CCN(c4cccc(Cl)c4)CC3)n2CCCc2ccccc2)n(C)c1=O |  |
|  |  | 614 | 100 | CCCCn1c(NCCCN2CCN(c3ccccc3)CC2)nc2c1c(=O)n(C)c(=O)n2C |  |
|  |  | 486 | 2.8 | COc1ccccc1N1CCN(CCCN2CCCn3c2nc2c3c(=O)n(C)c(=O)n2C)CC1 |  |
| 8 | 304 |  |  | COc1ccccc1N1CCN(CCCNc2nc3c(c(=O)n(C)c(=O)n3C)n2CCCc2ccccc2)CC1 |  |
